Here are results for 15 compounds from PubChem BioAssay (NCI).

Some test systems named below: HL-60(TB) leukemia; K-562 leukemia; KM12 colon; MOLT-4 leukemia; NCI/ADR-RES ovarian; PC-3 prostate; RXF 393 renal; SK-MEL-5 melanoma; UACC-257 melanoma; T-47D breast.
Common to all, as to test: NCI anticancer screen, dose series, 48 h

Several values for one entry are separate records, joined by “and”; a condition that tells them apart may be missing. Identical values can stand only once.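 Five compound concentrations were applied to cells in 96-well plates for 48 hours; endpoints were derived by simple linear interpolation of the resulting dose-response curve. GI50 = concentration required for 50% inhibition of growth. TGI: total growth inhibition.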

Turning to `Nc1ccc(-c2nc3ccccc3o2)cc1S`, the GI50 with HL-60(TB) leukemia is 14.5 µM; with K-562 leukemia it was 19 µM; in the experiment with KM12 colon, 8.1 µM; in the experiment on MOLT-4 leukemia, 7.77 µM; in the experiment on NCI/ADR-RES ovarian, 24.9 µM; in the experiment on PC-3 prostate, 6.96 µM. Besides, the GI50 in the experiment with RXF 393 renal is 29.4 µM; in the experiment with SK-MEL-5 melanoma, 12.5 µM; in the experiment with UACC-257 melanoma, 23.1 µM. Besides, the TGI in the experiment with HL-60(TB) leukemia was 42 µM; with K-562 leukemia, more than 100 µM; in the experiment with KM12 colon, 35.2 µM; with MOLT-4 leukemia it was more than 100 µM; in the experiment with NCI/ADR-RES ovarian it was 65.2 µM; in the experiment with PC-3 prostate, 22.5 µM. Besides, the TGI with RXF 393 renal worked out at 59.6 µM; in the experiment with SK-MEL-5 melanoma, 25.1 µM; in the experiment with UACC-257 melanoma, 59.8 µM.

On to `Cc1ccc(C(=O)C#Cc2c[nH]c(=O)[nH]c2=O)cc1`, for which the TGI in the experiment with HL-60(TB) leukemia was found to be 35.1 µM; in the experiment on K-562 leukemia, 34.2 µM; with KM12 colon it was 28.2 µM; in the experiment with MOLT-4 leukemia it was 23.8 µM; with RXF 393 renal, 12.4 µM; with SK-MEL-5 melanoma, 26.5 µM. The compound further yielded a TGI in the experiment with UACC-257 melanoma of 34.6 µM.

In the case of `CSc1nc(C)c(Br)c(=O)n1C1OC(COC(C)=O)C(OC(C)=O)C(OC(C)=O)C1OC(C)=O` (stereo unspecified), the TGI with HL-60(TB) leukemia was more than 100 µM; with K-562 leukemia it was more than 100 µM; in the experiment on KM12 colon, more than 100 µM; in the experiment with MOLT-4 leukemia, more than 100 µM; in the experiment with NCI/ADR-RES ovarian it was more than 100 µM; in the experiment on RXF 393 renal it was 49.2 µM and 40.7 µM. In addition, the TGI was > 100 µM and 50.7 µM with SK-MEL-5 melanoma; more than 100 µM with T-47D breast; more than 100 µM in the experiment on UACC-257 melanoma. Moreover, the GI50 with SK-MEL-5 melanoma was > 100 µM and 19.2 µM; in the experiment with UACC-257 melanoma, > 100 µM and 39 µM.

Regarding `NCCCNCCSSC/C=C\CSSCCNCCCN`, the TGI in the experiment with HL-60(TB) leukemia is 46.4 µM and 39.1 µM; in the experiment with K-562 leukemia, 62.3 µM and 65.1 µM; in the experiment on KM12 colon, 38.7 µM and 36.3 µM; with MOLT-4 leukemia, 62 µM and 57.3 µM; with RXF 393 renal it was more than 100 µM; with SK-MEL-5 melanoma, more than 100 µM. Moreover, in the experiment on UACC-257 melanoma, the TGI was > 100 µM and 76.8 µM. For the same compound, the GI50 in the experiment with RXF 393 renal was 83.3 µM and 30.6 µM.

For H-HIIKKIRTWYRKAWHVLGKV-NH2, the GI50 in the experiment on HL-60(TB) leukemia was 4.29 µM; in the experiment with K-562 leukemia it was 6.56 µM; with KM12 colon, 2.49 µM; in the experiment with MOLT-4 leukemia, 14.2 µM; in the experiment with NCI/ADR-RES ovarian, 5.85 µM; in the experiment with PC-3 prostate, 2.79 µM. Besides, the GI50 with RXF 393 renal was 4.23 µM; with SK-MEL-5 melanoma it was 3.94 µM; in the experiment on UACC-257 melanoma it was 8.48 µM. The TGI in the experiment on HL-60(TB) leukemia is 23.3 µM; in the experiment with K-562 leukemia, more than 100 µM; in the experiment with KM12 colon it was 6.58 µM; in the experiment with MOLT-4 leukemia, 57.2 µM; in the experiment with NCI/ADR-RES ovarian it was 28.5 µM; in the experiment on PC-3 prostate, 9.74 µM. In addition, the figures for the TGI with RXF 393 renal, in the experiment on SK-MEL-5 melanoma and in the experiment on UACC-257 melanoma were 25.1 µM, 19.5 µM and 59.6 µM, respectively.

Regarding `COC1OC(COS(=O)(=O)c2ccc(C)cc2)C(O)C(OS(=O)(=O)c2ccc(C)cc2)C1OS(=O)(=O)c1ccc(C)cc1` (stereo unspecified), the TGI with HL-60(TB) leukemia, in the experiment on K-562 leukemia, in the experiment with KM12 colon, in the experiment on MOLT-4 leukemia, in the experiment with RXF 393 renal and with SK-MEL-5 melanoma was more than 100 µM each time. The TGI in the experiment on UACC-257 melanoma is more than 100 µM.

In the case of `NC(=O)Nc1c([N+](=O)[O-])cc(C(F)(F)F)cc1[N+](=O)[O-]`, the TGI with HL-60(TB) leukemia, in the experiment on K-562 leukemia, in the experiment on KM12 colon, in the experiment on MOLT-4 leukemia, in the experiment with RXF 393 renal and in the experiment with SK-MEL-5 melanoma was more than 100 µM in each case. The compound further showed a TGI in the experiment with UACC-257 melanoma of more than 100 µM.

For the compound `CC1=NC(C(C)C)C(=O)O1` (stereo unspecified), the TGI with HL-60(TB) leukemia, with K-562 leukemia, in the experiment with KM12 colon, with MOLT-4 leukemia, with SK-MEL-5 melanoma and in the experiment on UACC-257 melanoma was more than 100 µM throughout.

As to `Cc1cc(=O)oc2c(OS(C)(=O)=O)c(OS(C)(=O)=O)ccc12`, the TGI with HL-60(TB) leukemia, in the experiment on K-562 leukemia, in the experiment on KM12 colon, in the experiment with MOLT-4 leukemia, with NCI/ADR-RES ovarian and in the experiment on PC-3 prostate was more than 100 µM throughout. In addition, the TGI in the experiment on SK-MEL-5 melanoma and in the experiment on UACC-257 melanoma was more than 100 µM each time.

For the compound `O=C1OC(c2ccccc2)=N/C1=C\c1cc(Cl)ccc1Cl`, the TGI was 35.3 µM in the experiment on HL-60(TB) leukemia; more than 100 µM in the experiment with K-562 leukemia; more than 100 µM in the experiment with KM12 colon; 53.7 µM with MOLT-4 leukemia; more than 100 µM in the experiment on RXF 393 renal; more than 100 µM in the experiment with SK-MEL-5 melanoma. Also, the TGI in the experiment with UACC-257 melanoma is more than 100 µM.

With `CCCc1nc(NC#N)nc(C(=O)NC23CC4CC(CC(C4)C2)C3)c1C`, the TGI with HL-60(TB) leukemia, in the experiment on K-562 leukemia, in the experiment with KM12 colon, in the experiment on MOLT-4 leukemia, in the experiment with RXF 393 renal and with SK-MEL-5 melanoma was more than 100 µM in each case. The same compound showed a TGI in the experiment with UACC-257 melanoma of more than 100 µM.

For `CCOC(=O)N[C@@H]1C2CC(=O)C(O2)[C@@H]1OC` (stereo partly specified), the TGI in the experiment on HL-60(TB) leukemia, with K-562 leukemia, with KM12 colon, in the experiment with MOLT-4 leukemia, in the experiment on RXF 393 renal and in the experiment with SK-MEL-5 melanoma was more than 100 µM throughout. Moreover, the TGI in the experiment with UACC-257 melanoma is more than 100 µM.

On to `COc1ccc(C(=O)C(C(=O)C(=O)NC2C3CC4CC(C3)CC2C4)c2ccc(OC)cc2)cc1` (stereo unspecified), for which the TGI in the experiment on HL-60(TB) leukemia, in the experiment with K-562 leukemia, in the experiment with KM12 colon, in the experiment on MOLT-4 leukemia, with SK-MEL-5 melanoma and in the experiment with UACC-257 melanoma was more than 100 µM throughout.

With `COC(=O)C1=C(c2ccc3c(c2)OCO3)OC(c2ccc3c(c2)OCO3)C1` (stereo unspecified), the TGI in the experiment with HL-60(TB) leukemia, with K-562 leukemia, in the experiment on KM12 colon, in the experiment on MOLT-4 leukemia, with RXF 393 renal and in the experiment with SK-MEL-5 melanoma was more than 100 µM throughout. Besides, in the experiment with UACC-257 melanoma, the TGI was more than 100 µM.

Consider `CN(C)C1=NC2=S(SC(Nc3ccccc3)=N2)S1` (stereo unspecified), for which the TGI in the experiment with HL-60(TB) leukemia was more than 100 µM; in the experiment with K-562 leukemia, more than 100 µM; in the experiment on KM12 colon, more than 100 µM; in the experiment with MOLT-4 leukemia, more than 100 µM; in the experiment with RXF 393 renal, more than 100 µM; with SK-MEL-5 melanoma, 28.8 µM. The same compound yielded a TGI in the experiment on UACC-257 melanoma of 70.8 µM.
